Results on two compounds are retold here after patent publication US6414222B1, “Gene combinations for herbicide tolerance in corn” (Regents of the University of Minnesota, priority 1993, dated 2002).

The subject of test [1] is ACCase of cell line 2167-9/2160-154 H-2. Briefly: Herbicide inhibition of ACCase, line H-2. Format: biochemical, maize. The following applies: cell line H-2. As for the experimental part: (§1) Maize chloroplasts, isolated as described above, were suspended in buffer C (0.1 M Tricine-KOH, pH 8.0; 0.3 M glycerol, and 1 mM DTT) and homogenized in a glass tissue homogenizer. The disrupted chloroplast fraction was centrifuged at 16,000 g for 15 minutes. The supernatant was desalted on a Sephadex G-25 column (1.5×5 cm equilibrated with 0.1 M Tricine-KOH, pH 8.0; and 0.3 M glycerol) and assayed directly. ACCase activity (B. J. Nikolau et al., Arch. Biochem. Biophys., 211, 605-612 (1981)) was assayed at 30° C. in a 0.2 ml volume which contained 1 mM ATP, 3 mM acetyl coenzyme A, 2.5 mM MgCl2, 50 mM KCl, 0.5 mM DTT, and 15 mM [^14C]NaHCO3 (0.17 mCi/mmol). Reactions were initiated by addition of acetyl coenzyme A and stopped by addition of 25 μl of 12 N HCl. Product formation was determined by the radioactivity found in an acid stable fraction by liquid scintillation spectrometry. Enzyme activity was linear for 15 minutes.
Acetyl Coenzyme A Carboxylase (ACCase) was extracted from cell lines S-1, H-1 and H-2 and assayed as described in detail for maize cell line S-2, above.

For test [2], the system named is tolerant cell line 2167-9/2160-154 S-2. Nature of the test: Callus growth on herbicide medium, line S-2. Format: cell-based, maize. As for the experimental part:
Tolerant cell line 2167-9/2160-154 S-2 (“S-2”) was characterized to evaluate: (1) the magnitude of sethoxydim tolerance; (2) cross-tolerance of haloxyfop; and (3) the biochemical basis for the tolerance. Callus tissue from S-2 that had been maintained on 10 μM sethoxydim was transferred to media containing up to 100 μM sethoxydim. One-half gram of S-2 tissue was plated on a 7 cm filter paper as a lawn overlaying 50 ml agar-solidified culture medium containing 0, 0.5, 1.0, 2.0, 5.0, 10.0, 50.0 and 100 μM sethoxydim, and cultured for two weeks. Control cell line 2167-9/2160-154 was plated similarly on medium containing the same levels of sethoxydim. The control cell line growth after two weeks was inhibited 50% at 1 μM sethoxydim.

The test system of test [3] is control cell line 2167-9/2160-154. Nature of the test: Callus growth on herbicide medium, control line. The following applies: for IC50: read-out: Herbicide concentration inhibiting growth 50%. Format: cell-based, maize. As for the experimental part:
A selection protocol to identify and isolate herbicide-tolerant maize cells was developed to minimize the adverse effects of high herbicide concentrations on somatic embryo development and plant regeneration capacity. The procedure involved exposing tissue to gradually increasing concentrations of herbicide beginning with a sethoxydim concentration representing 1/20th of lethal dose and doubling the herbicide concentration at approximately two-week intervals until the lethal dose (10 μM sethoxydim) was reached. In this way, the herbicide was allowed to take effect slowly with continuous selection pressure, thus permitting herbicide-tolerant cells to accumulate over time while not affecting the potential for plant regeneration.
Approximately 100 grams of vigorously growing, regenerable, friable, embryogenic maize callus tissue established from an F1 immature embryo resulting from the cross A188×B73 were transferred to agar-solidified maintenance medium (Armstrong and Green, Planta, 164, 207 (1985)) in petri plates containing 0.5 μM sethoxydim (BASF) (Parsippany, N.J.). This callus line was designated 2167-9/2160-154. Forty plates were prepared and five clumps of callus tissue weighing about 0.5 grams each were placed on each plate. The 0.5 μM sethoxydim concentration was chosen from growth inhibition studies to provide less than 10-20% growth inhibition during the first two weeks of herbicide exposure. After 14 days, 0.25-0.5 gram pieces of tissue showing vigorous growth rate and retention of embryogenic morphology (i.e., presence of somatic embryos) were subcultured on fresh medium containing 1.0 μM sethoxydim. Eighty plates containing five pieces of tissue per plate were prepared. For each subsequent transfer, all callus tissue showing growth and somatic embryo forming ability was placed on fresh media containing a two-fold increased sethoxydim concentration. Therefore, callus was transferred at two-week intervals to petri plates containing 0.5, 1.0, 2.0, 5.0 and 10.0 μM sethoxydim. During the course of the selection process, the total number of lines decreased as the herbicide-mediated growth inhibition became more intense. […] These lines were designated 2167-9/2160-154 S-1 and 2167-9/2160-154 S-2.
Tolerant cell line 2167-9/2160-154 S-2 (“S-2”) was characterized to evaluate: (1) the magnitude of sethoxydim tolerance; (2) cross-tolerance of haloxyfop; and (3) the biochemical basis for the tolerance. Callus tissue from S-2 that had been maintained on 10 μM sethoxydim was transferred to media containing up to 100 μM sethoxydim. One-half gram of S-2 tissue was plated on a 7 cm filter paper as a lawn overlaying 50 ml agar-solidified culture medium containing 0, 0.5, 1.0, 2.0, 5.0, 10.0, 50.0 and 100 μM sethoxydim, and cultured for two weeks. […]

Test [4] concerns acetyl-coenzyme A carboxylase (ACCase) (EC 6.4.1.2) in maize chloroplasts. Nature of the test: Acetyl-Coenzyme A Carboxylase (ACCase) activity of maize chloroplasts. Format: biochemical. As for the experimental part: as §1
Test [5] has as its system Homozygous tolerant H2 seedlings. Nature of the test: Foliar herbicide application, lethal rate. Format: in vivo, maize (Zea mays L.). The following applies: for Fold increase in tolerance compared to the wildtype: H2 seedlings; for Lethal rates: Homozygous tolerant H2, average of two families, scored 21 days after treatment. As for the experimental part: (§2) Foliar applications of the herbicides were made to greenhouse- or field-grown seedlings at the three- to five-leaf stage. Herbicides were applied in a spray volume of 187 l/ha that includes 2.3 l/ha crop oil concentrate to enhance uptake. Sethoxydim and haloxyfop were applied using commercial formulations (Poast from BASF Corp and Verdict from Dow Elanco, respectively). Visual observations were recorded 14-21 days after herbicide treatments.
(§3) For each mutant, two homozygous tolerant R4 families were derived from two different regenerated plants and two heterozygous F1 families were obtained from crosses of R3 homozygous tolerant lines with the susceptible inbreds A188 and A619. Sethoxydim and haloxyfop each were applied at rates ranging from 0.0034 to 7.0 kg/ha. For each genotype a five-rate doubling series was used to determine herbicide lethality. Because of the large differences between wildtype and mutants in herbicide susceptibility, the ranges of herbicide application rates were varied. Two five plant/pot replicates of each family were evaluated for each rate. Herbicide injury symptoms were scored visually 21 days after herbicide treatment. The lethal rate was considered to be the lowest application rate resulting in death of all seedlings in the four replications of each homozygous tolerant genotype or in the eight replications of the heterozygous combinations.

Test [6] has as its system Homozygous tolerant H1 seedlings. Nature of the test: Foliar herbicide application, lethal rate. The following applies: Homozygous tolerant H1, average of two families; scored 21 days after treatment. Format: in vivo, maize (Zea mays L.). As for the experimental part: as §2, §3
The test system of test [7] is Homozygous tolerant S2 seedlings. Nature of the test: Foliar herbicide application, lethal rate. The following applies: for Lethal rates: Homozygous tolerant S2, average of two families, scored 21 days after treatment. Format: in vivo, maize (Zea mays L.). As for the experimental part: as §2, §3
Test [8] has as its system Heterozygous tolerant Inbred × S2 seedlings. Nature of the test: Foliar herbicide application, lethal rate. The following applies: Heterozygous tolerant Inbred × S2, average of A188- and A619-derived F1 families. Format: in vivo, maize (Zea mays L.). As for the experimental part: as §2, §3
In test [9] the test system is Wildtype (A188 and A619) seedlings. Briefly: Foliar herbicide application, lethal rate. Format: in vivo, maize (Zea mays L.). The following applies: average response of A188 and A619, scored 21 days after treatment. As for the experimental part:
as §2, §3

Test [10] relates to Heterozygous tolerant Inbred × S3 seedlings. Nature of the test: Foliar herbicide application, lethal rate. Format: in vivo, maize (Zea mays L.). The following applies: Heterozygous tolerant Inbred × S3, average of A188- and A619-derived F1 families. As for the experimental part:
as §2, §3

Where two headings read alike, the source gives them in different places. A value given as a limit tells only on which side of the number the result lay.

For `CC(Oc1ccc(Oc2ncc(C(F)(F)F)cc2Cl)cc1)C(=O)O` (centres unmarked) [Haloxyfop, 2-[4-[[3-chloro-5-(trifluoromethyl)-2-pyridinyl]oxy]phenoxy]-propanoic acid], the “Fold increase in herbicide concentration that inhibits ACCase activity by 50% vs unselected parent cell line” value in test [1] is 0 fold; in [1] (listed as haloxyfop), “no difference”. In addition, the IC50 in test [2] (Zea mays, callus growth, read-out: Herbicide concentration inhibiting growth of S-2) is 650 nM; in [3] (Zea mays, 336 h, control callus, growth after two weeks), 20 nM. For the same compound, the “Fold increase in tolerance of S-2 versus control callus line (growth)” value in [2] (callus growth) was around 30 fold. In test [4], the “Effect on ACCase in maize chloroplasts” value was “inhibit”. Further, the “Fold increase in tolerance compared to the wildtype” value in test [5] was “about 16 fold”. For the same compound, the Lethal rates came to 0.22 kg/ha in test [5]; 0.11 kg/ha in [6]; 0.22 kg/ha in test [7]; 0.11 kg/ha in test [8]; 0.014 kg/ha in [9]; 0.11 kg/ha in test [10].

One may read the inhibition as the change of the read-out against control, counted positive when it falls. Turning to `CCCC(=NOCC)C1=C(O)CC(CC(C)SCC)CC1=O` (centres unmarked) [Sethoxydim, 2-[1-(ethoxyimino)-butyl]-5-[2-(ethylthio)propyl]-3-hydroxy-2-cyclohexen-1-one], the “Fold increase in herbicide concentration that inhibits ACCase activity by 50% vs unselected parent cell line” value in test [1] was 0 fold; in test [1] (listed as sethoxydim), “no difference”. The “Growth of S-2 callus” value in [2] (100 μM sethoxydim, cultured two weeks) is reported as “not inhibited”. Moreover, in [2] (callus growth), the “Fold increase in tolerance of S-2 versus control callus line (growth)” value is given as “at least 100 fold”. Moreover, the inhibition at 0.5 µM in test [3] (Zea mays, 336 h, read-out: Growth inhibition) fell in the range of 10 to 20%. Further, the IC50 in test [3] (Zea mays, 336 h) came to 1000 nM. In addition, the “Lethal dose for callus tissue” value in [3] (tissue culture selection protocol) was 10 µM. In addition, the “Effect on ACCase in maize chloroplasts” value in test [4] is on record as “inhibit”. Also, the “Fold increase in tolerance compared to the wildtype” value in [5] is “about 16 fold”. Moreover, the Lethal rates in test [5] is 0.88 kg/ha; in [6], 0.055 kg/ha; in test [7] it was above 7.0 kg/ha; in test [8], “≧1.8 kg/ha”; in test [9] it was 0.055 kg/ha; in test [10] it was “≧1.8 kg/ha”. Moreover, the “Fold increase over the lethal rate for wildtype plants” value in [7] (homozygous S2 seedlings, not killed at 7 kg/ha) is on record as at least 127 fold.
